Source: patent publication US5120870A, “Emulsion of lipid containing a prostaglandin analogue” (priority 1989, dated 1992)

Tests used:
[1] = tested on: human platelet aggregation; conditions: Table 1(b), activity of PGE1 rated 100, cited from earlier work; for Inhibitory effects against human platelet aggregation (relative activity): (no incubation stated)
[2] = 1.6% BSA-saline solution, mean ± SE, n = 4-7, cited from earlier work
platelet aggregation = experiment: Platelet aggregation inhibiting effect, ADP-induced, platelet rich plasma; type: cell-based; conditions: 20 μM ADP, relative to physiological saline
Description: Further, the platelet aggregation inhibiting effects were measured as follows, and the results are shown also in Table 3.
Using sodium citrate (3.8%), peripheral blood was collected (blood 9, sodium citrate 1). This peripheral blood was subjected to centrifugal separation at 1000 rpm for 10 minutes to obtain a platelet rich plasma, and the rest was subjected to centrifugal separation at 3000 rpm for 20 minutes to obtain a plate poor plasma. To 225 μl of the platelet rich plasma, 50 μl of a test sample was added. One minute later, platelet aggregation was induced with 20 μMADP solution 25, whereupon the aggregation inhibitory rate (%) was calculated based on the aggregation rate when a physiological saline solution was added instead of the test sample, being rated as 100%.

[3] = Stability of the PG analogue during the preparation of the emulsion (HPLC); type: physicochemical; conditions: lipid emulsion prepared at 90° C., final concentration 5 μg/ml
Description: To 500 μg of the PG analogue of the formula (2) of the present invention produced as described above, 10 g of purified soybean oil and 1.2 g of purified yolk lecitin were added, and the mixture was melted under heating at 90° C. by means of a homogenizer at 90° C. Then, 2.5 g of glycerol and 90 ml of distilled water for injection were added thereto, followed by rough emulsification by means of a homogenizer at […]. The product is then emulsified by means of a manton gaulin type homogenizer to obtain an emulsion having a final concentration of 5 μg/ml.
The stability of the PG analogue of the present invention during the preparation of the emulsion and the storage stability of the emulsion were measured, and the results are shown in Table 3.
The stability during the preparation and the remaining rate in the storage stability was measured by a separation quantitative analysis by means of high performance liquid chromatography, and the ratio of the measured amount relative to the amount at the initiation of the test was taken as the remaining rate.

[4] = Storage stability of the emulsion (HPLC); type: physicochemical; conditions: for Storage stability: Decomposition reaction rate constant: 40° C., calculated from change with time of remaining rate; for Storage stability: Remaining rate: emulsion stored 4 weeks at 40° C., 40320 min
Description: | Storage stability: | Stored for 4 weeks under a temperature condition of 40° C., and th | remaining rate (%) after the 4 weeks was measured. Further, from the | change with time of the remaining rate, the decomposition reaction rate | constant was calculated. The stability during the preparation and the remaining rate in the storage stability was measured by a separation quantitative analysis by means of high performance liquid chromatography, and the ratio of the measured amount relative to the amount at the initiation of the test was taken as the remaining rate.

SMILES | Inhibitory effects against human platelet aggregation (relative activity) [1] | Inhibitory effects against human platelet aggregation (relative activity), after incubating in human serum for 20 min [1] | % of PGE1 (or ester) liberated from LM, 1 min incubation [2] | % of PGE1 (or ester) liberated from LM, 10 min incubation [2] | Platelet aggregation inhibitory effects (platelet aggregation) | Stability during the preparation [3] | Storage stability: Decomposition reaction rate constant [4] | Storage stability: Remaining rate [4]
CCCCC[C@H](O)/C=C/[C@H]1[C@H](O)CC(=O)[C@@H]1CCCCCCC(=O)OCC [PGE1 ethyl ester] | 20 | 28 | 82.0 ± 8.8% | 125.4 ± 11.7% |  |  |  | 
CCCCC[C@H](O)/C=C/[C@H]1[C@H](O)CC(=O)[C@@H]1CCCCCCC(=O)O [PGE1] |  |  |  |  | 55% | 43.9% | 113 d^-1 × 10^3 | 4.6%
CCCCC[C@H](O)/C=C/[C@@H]1C(CCCCCCC(=O)OCCCC)=C(OC(C)=O)C[C@H]1O [Example 3, butyl 9-acetoxy-11α,15S-dihydroxyprosta-8,13E-diene-1-oate] |  |  |  |  | 93% | 72.1% | 8.30 d^-1 × 10^3 | 80.1%
CCCCC[C@H](O)/C=C/[C@@H]1C(CCCCCCC(=O)OC)=C(OC(C)=O)C[C@H]1O [Example 2, methyl 9-acetoxy-11α,15S-dihydroxyprosta-9,13E-diene-1-oate] |  |  |  |  | 100% | 70.4% | 11.8 d^-1 × 10^3 | 72.7%
CCCCC[C@H](O)/C=C/[C@H]1[C@H](O)CC(=O)[C@@H]1CCCCCCC(=O)OC [PGE1 methyl ester] | 23 | 51 | 82.5 ± 3.8% | 80.4 ± 2.9% |  |  |  | 
CCCCC[C@H](O)/C=C/[C@H]1[C@H](O)CC(=O)[C@@H]1CCCCCCC(=O)OCCCC [PGE1 butyl ester] | 29 | 89 | 60.5 ± 4.0% | 65.3 ± 5.6% |  |  |  | 
CCCC[C@H](C)C[C@H](O)/C=C/[C@@H]1C(CCCCCCC(=O)OC)=C(OC(C)=O)C[C@H]1O [Example 4, methyl 9-acetoxy-11α,15S-dihyroxy-17S,20-dimethylprosta-8,13E-diene-1-oate] |  |  |  |  | 44% | 68.3% | 8.87 d^-1 × 10^3 | 77.9%
CCCCCCCCOC(=O)CCCCCC[C@H]1C(=O)C[C@@H](O)[C@@H]1/C=C/[C@@H](O)CCCCC [PGE1 octyl ester] |  | 4 |  |  |  |  |  | 
CCCCOC(=O)CCCCCCC1=C(OC(C)=O)C[C@@H](O)[C@@H]1/C=C/[C@@H](O)C[C@@H](C)CCCC [Example 1, butyl 9-actoxy-11α,15S-dihyroxy-17S,20-dimethylprosta-8-13E-diene-1-oate] |  |  |  |  | 37% | 75.6% | 6.20 d^-1 × 10^3 | 84.8%
